From patent US20240150377A1, “MODULATORS OF CYSTIC FIBROSIS TRANSMEMBRANE CONDUCTANCE REGULATOR” (VERTEX PHARMACEUTICALS INCORPORATED, priority 2020, published 2024)

Molecular target: T1, CFTR (Homo sapiens, UniProt P13569, DEL508-508)
T1 construct: endogenous in cells; host or cells: primary human bronchial epithelial cells from CF subjects (F508del/MF-HBE), differentiated at air-liquid interface
Experiment: HBE2 assay: Ussing chamber assay of CFTR-mediated short-circuit currents
Type: cell-based
Conditions: F508del/MF-HBE cells, with 44 nM potentiator, 18-24 hours, 20% human serum; for Emax: read-out: HBE2 Max activity (%)
Summary of the method: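 Corrector activity read as CFTR-dependent ISC (μA/cm^2): peak forskolin current minus post-inhibitor steady state. Measured at 37 °C, voltage clamp at 0 mV, on F508del/MF-HBE epithelia grown >14 days air-liquid interface in Ussing chambers.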

T1 sequence (P13569 with tags, fused parts or gaps DEL508-508): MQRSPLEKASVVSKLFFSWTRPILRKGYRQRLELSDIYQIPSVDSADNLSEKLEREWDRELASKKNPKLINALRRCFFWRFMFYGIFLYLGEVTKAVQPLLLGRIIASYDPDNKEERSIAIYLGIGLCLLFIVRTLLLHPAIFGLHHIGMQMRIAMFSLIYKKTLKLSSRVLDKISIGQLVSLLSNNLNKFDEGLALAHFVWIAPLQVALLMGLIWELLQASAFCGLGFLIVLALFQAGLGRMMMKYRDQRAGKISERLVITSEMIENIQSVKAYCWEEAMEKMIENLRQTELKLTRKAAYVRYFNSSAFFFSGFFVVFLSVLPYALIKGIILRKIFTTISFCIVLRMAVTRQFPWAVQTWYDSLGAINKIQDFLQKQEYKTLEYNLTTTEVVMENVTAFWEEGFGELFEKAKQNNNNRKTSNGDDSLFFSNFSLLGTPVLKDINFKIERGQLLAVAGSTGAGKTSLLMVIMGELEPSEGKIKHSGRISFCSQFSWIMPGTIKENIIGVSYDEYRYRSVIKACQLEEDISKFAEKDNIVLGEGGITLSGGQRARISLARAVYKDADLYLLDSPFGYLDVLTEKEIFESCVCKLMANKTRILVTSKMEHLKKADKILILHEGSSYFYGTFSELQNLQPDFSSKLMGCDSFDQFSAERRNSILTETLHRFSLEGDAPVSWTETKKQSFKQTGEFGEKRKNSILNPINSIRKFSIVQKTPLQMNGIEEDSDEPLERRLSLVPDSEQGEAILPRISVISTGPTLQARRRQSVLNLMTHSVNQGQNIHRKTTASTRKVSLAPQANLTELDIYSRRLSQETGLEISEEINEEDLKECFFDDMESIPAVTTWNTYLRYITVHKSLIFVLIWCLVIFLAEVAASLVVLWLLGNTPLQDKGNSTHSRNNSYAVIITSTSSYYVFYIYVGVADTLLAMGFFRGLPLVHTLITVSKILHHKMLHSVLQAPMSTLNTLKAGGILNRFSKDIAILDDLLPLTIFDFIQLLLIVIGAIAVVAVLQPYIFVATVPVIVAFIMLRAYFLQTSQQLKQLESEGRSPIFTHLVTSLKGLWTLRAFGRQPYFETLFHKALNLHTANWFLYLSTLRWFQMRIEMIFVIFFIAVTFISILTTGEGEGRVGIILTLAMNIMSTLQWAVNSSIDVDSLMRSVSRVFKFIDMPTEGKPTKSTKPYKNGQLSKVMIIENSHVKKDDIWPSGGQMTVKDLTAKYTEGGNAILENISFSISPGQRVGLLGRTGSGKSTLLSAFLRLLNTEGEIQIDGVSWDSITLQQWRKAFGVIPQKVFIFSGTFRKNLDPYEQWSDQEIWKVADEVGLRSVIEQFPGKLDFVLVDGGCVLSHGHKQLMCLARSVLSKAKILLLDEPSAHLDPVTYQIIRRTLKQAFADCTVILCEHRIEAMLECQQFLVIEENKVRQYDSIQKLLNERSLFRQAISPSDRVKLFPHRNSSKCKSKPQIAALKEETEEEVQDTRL

SMILES | HBE2 Activity at 3 μM (%) (3 μM) | also measured
Cc1cccc(C)c1-c1cc2nc(n1)NS(=O)(=O)c1cccc(c1)C(=O)N(Cc1cncc(N(C)C3CCC3)n1)[C@H](CCC1(C)CC1)CO2 [Compound 1336, 12-[[6-[cyclobutyl(methyl)amino]pyrazin-2-yl]methyl]-6-(2,6-dimethylphenyl)-11-[2-(1-methylcyclopropyl)ethyl]-2,2-dioxo-9-oxa-2λ^6-thia-3,5,12,19-tetrazatricyclo[12.3.1.14,8]nonadeca-1(18),4(19),5,7,14,16-hexaen-13-one] |  | HBE2 Activity at 3 μM (%) (3 μM corrector): +++ (+++ is >60+)
Cc1cccc(C)c1-c1cc2nc(n1)NS(=O)(=O)c1cccc(c1)C(=O)N(Cc1cncc(N3CCC[C@H]3C(C)C)n1)[C@H](COC1CC1)CO2 [Compound 1341, (11R)-11-(Cyclopropoxymethyl)-6-(2,6-dimethylphenyl)-12-[[6-[(2S)-2-isopropylpyrrolidin-1-yl]pyrazin-2-yl]methyl]-2,2-dioxo-9-oxa-2^6-thia-3,5,12,19-tetrazatricyclo[12.3.1.14,8]nonadeca-1(18),4(19),5,7,14,16-hexaen-13-one] |  | HBE2 Activity at 3 μM (%) (3 μM corrector): +++ (+++ is >60+)
COCCN(C)c1nc(CN2C(=O)c3cccc(c3)S(=O)(=O)Nc3nc(cc(-c4c(C)cccc4C)n3)OC[C@H]2CC(C)(C)C)co1 [Compound 1409] | +++ (+++ is >60+) | 
Cc1cccc(C)c1-c1cc2nc(n1)NS(=O)(=O)c1cccc(c1)C(=O)N(Cc1cc(C(C)C)n(C)n1)[C@H](CC(C)(C)C)CO2 [Compound 1413] | ++ (++ is 30-60%) | 
COC[C@H]1CCCCN1c1cncc(CN2C(=O)c3cccc(c3)S(=O)(=O)Nc3nc(cc(-c4c(C)cccc4C)n3)OC[C@H]2CC(C)(C)C)n1 [Compound 1539] |  | EC50: < 1000 nM; Emax: > 60%
Cc1cccc(C)c1-c1cc2nc(n1)NS(=O)(=O)c1cccc(c1)C(=O)N(Cc1cncc(N3CC[C@@H]4COC[C@@H]43)n1)[C@H](CC(C)(C)C)CO2 [Compound 1541] |  | EC50: < 1000 nM; Emax: > 60%
Cc1cccc(C)c1-c1cc2nc(n1)NS(=O)(=O)c1cccc(c1)C(=O)N(Cc1ncc(N3CCC(F)(F)C3)cn1)[C@H](CC1(C)CC1)CO2 [Compound 1548] | +++ (+++ is >60+) | 
COC[C@@H]1CCN1c1cncc(CN2C(=O)c3cccc(c3)S(=O)(=O)Nc3nc(cc(-c4c(C)cccc4C)n3)OC[C@H]2CC(C)(C)C)n1 [Compound 1549] | +++ (+++ is >60+) | EC50: < 1000 nM; Emax: > 60%
COC[C@@H]1CCN1c1cccc(CN2C(=O)c3cccc(c3)S(=O)(=O)Nc3nc(cc(-c4c(C)cccc4C)n3)OC[C@H]2CC(C)(C)C)n1 [Compound 1550] | +++ (+++ is >60+) | 
Cc1cccc(C)c1-c1cc2nc(n1)NS(=O)(=O)c1cccc(c1)C(=O)N(Cc1cccc(N3CC[C@H]3C)n1)[C@H](CC(C)(C)C)CO2 [Compound 1551] | +++ (+++ is >60+) | 
Cc1cccc(C)c1-c1cc2nc(n1)NS(=O)(=O)c1cccc(c1)C(=O)N(Cc1nccc(N3CC[C@H]3C)n1)[C@H](CC(C)(C)C)CO2 [Compound 1552] | +++ (+++ is >60+) | 
COC[C@@H]1CCN1c1ccnc(CN2C(=O)c3cccc(c3)S(=O)(=O)Nc3nc(cc(-c4c(C)cccc4C)n3)OC[C@H]2CC(C)(C)C)n1 [Compound 1553] | +++ (+++ is >60+) | 
CC[C@@H](C)Oc1cnc(CN2C(=O)c3cccc(c3)S(=O)(=O)Nc3nc(cc(-c4c(C)cccc4C)n3)OC[C@H]2CC2(C)CC2)nc1 [Compound 1555] | +++ (+++ is >60+) | 
CC[C@@H](C)Oc1cnc(CN2C(=O)c3cccc(c3)S(=O)(=O)Nc3nc(cc(-c4c(C)cccc4C)n3)OC[C@H]2CC2CCC2)nc1 [Compound 1556] | +++ (+++ is >60+) | 
Cc1cccc(C)c1-c1cc2nc(n1)NS(=O)(=O)c1cccc(c1)C(=O)N(Cc1ncc(N3CCC(C)(C)CC3)cn1)[C@H](CC1(C)CC1)CO2 [Compound 1560] | +++ (+++ is >60+) | 
Cc1cccc(C)c1-c1cc2nc(n1)NS(=O)(=O)c1cccc(c1)C(=O)N(Cc1ncc(N3CCC(C)(C)C3)cn1)[C@H](CC1(C)CC1)CO2 [Compound 1561] | +++ (+++ is >60+) | 
CCCOc1cnc(CN2C(=O)c3cccc(c3)S(=O)(=O)Nc3nc(cc(-c4c(C)cccc4C)n3)OC[C@H]2CC2(C)CC2)nc1 [Compound 1562] | +++ (+++ is >60+) | 
Cc1cccc(C)c1-c1cc2nc(n1)NS(=O)(=O)c1cccc(c1)C(=O)N(Cc1ncc(N3CC(C)(C)C3)cn1)[C@H](CC(C)C)CO2 [Compound 1563] | +++ (+++ is >60+) | 
Cc1cccc(C)c1-c1cc2nc(n1)NS(=O)(=O)c1cccc(c1)C(=O)N(Cc1ncc(N3CCC(C)(C)C3)cn1)[C@H](CC(C)(C)F)CO2 [Compound 1564] | +++ (+++ is >60+) | 
Cc1cccc(C)c1-c1cc2nc(n1)NS(=O)(=O)c1cccc(c1)C(=O)N(Cc1ncc(OC(C)C)cn1)[C@H](CC1CCC1)[C@@H](C)O2 [Compound 1565] | +++ (+++ is >60+) | 
Cc1cccc(C)c1-c1cc2nc(n1)NS(=O)(=O)c1cccc(c1)C(=O)N(Cc1ncc(OC(C)C)cn1)[C@H](CC1CCC1)[C@@H](C)O2 [Compound 1566] | + (+ is <300)) | 

SMILES | HBE2 Activity at 3 μM (%) (3 μM) | also measured
Cc1cccc(C)c1-c1cc2nc(n1)NS(=O)(=O)c1cccc(c1)C(=O)N(Cc1ncc(OC(C)C)cn1)[C@H](CC1CCC1)[C@@H](C)O2 [Compound 1567] | +++ (+++ is >60+) | 
Cc1cccc(C)c1-c1cc2nc(n1)NS(=O)(=O)c1cccc(c1)C(=O)N(Cc1ncc(OC(C)C)cn1)[C@H](CC1CCC1)[C@@H](C)O2 [Compound 1568] | +++ (+++ is >60+) | 
Cc1cccc(C)c1-c1cc2nc(n1)NS(=O)(=O)c1cccc(c1)C(=O)N(Cc1cccc(N3CCC[C@H]3C)n1)[C@H](CC1(C)CC1)CO2 [Compound 1569] | +++ (+++ is >60+) | 
Cc1cccc(C)c1-c1cc2nc(n1)NS(=N)(=O)c1cccc(c1)C(=O)N(Cc1ncc(OC(C)C)cn1)[C@H](CC(C)(C)C)CO2 (some centres unmarked) [Compound 1574] | ++ (++ is 30-60%) | 
Cc1cccc(C)c1-c1cc2nc(n1)NS(=N)(=O)c1cccc(c1)C(=O)N(Cc1ncc(OC(C)C)cn1)[C@H](CC(C)(C)C)CO2 (some centres unmarked) [Compound 1575] | +++ (+++ is >60+) | 
Cc1cccc(C)c1-c1cc2nc(n1)NS(=O)(=O)c1cccc(c1)C(=O)N(Cc1ncc(OC3CCC3)cn1)[C@H](CC1(C)CC1)CO2 [Compound 1576] | +++ (+++ is >60+) | 
CCCOc1cnc(CN2C(=O)c3cccc(c3)S(=O)(=O)Nc3nc(cc(-c4c(C)cccc4C)n3)OC[C@H]2CCC(C)C)nc1 [Compound 1577] | +++ (+++ is >60+) | 
Cc1cccc(C)c1-c1cc2nc(n1)NS(=O)(=O)c1cccc(c1)C(=O)N(Cc1cccc(N(C)C3CCC3)n1)[C@H](CC(C)(C)C)CO2 [Compound 1578] | +++ (+++ is >60+) | EC50: < 1000 nM; Emax: > 60%
CCN(c1cncc(CN2C(=O)c3cccc(c3)S(=O)(=O)Nc3nc(cc(-c4c(C)cccc4C)n3)OC[C@H]2CC(C)(C)C)n1)C1CCC1 [Compound 1579] | +++ (+++ is >60+) | EC50: < 1000 nM; Emax: > 60%
CCN(CCOC)c1cncc(CN2C(=O)c3cccc(c3)S(=O)(=O)Nc3nc(cc(-c4c(C)cccc4C)n3)OC[C@H]2CC(C)(C)C)n1 [Compound 1580] | +++ (+++ is >60+) | EC50: < 1000 nM; Emax: > 60%
CC(=O)N(C)c1cncc(CN2C(=O)c3cccc(c3)S(=O)(=O)Nc3nc(cc(-c4c(C)cccc4C)n3)OC[C@H]2CC(C)(C)C)n1 [Compound 1581] | +++ (+++ is >60+) | 
COC(=O)N(C)c1cncc(CN2C(=O)c3cccc(c3)S(=O)(=O)Nc3nc(cc(-c4c(C)cccc4C)n3)OC[C@H]2CC(C)(C)C)n1 [Compound 1582] | +++ (+++ is >60+) | 
CC(=O)N(C)c1cccc(CN2C(=O)c3cccc(c3)S(=O)(=O)Nc3nc(cc(-c4c(C)cccc4C)n3)OC[C@H]2CC(C)(C)C)n1 [Compound 1583] | +++ (+++ is >60+) | 
COC(=O)N(C)c1cccc(CN2C(=O)c3cccc(c3)S(=O)(=O)Nc3nc(cc(-c4c(C)cccc4C)n3)OC[C@H]2CC(C)(C)C)n1 [Compound 1584] | +++ (+++ is >60+) | 
Cc1cccc(C)c1-c1cc2nc(n1)NS(=O)(=O)c1cccc(c1)C(=O)N(Cc1cccc(N3CCC[C@@]3(C)CO)n1)[C@H](CC(C)(C)C)CO2 [Compound 1586] | +++ (+++ is >60+) | 
CCN(c1cccc(CN2C(=O)c3cccc(c3)S(=O)(=O)Nc3nc(cc(-c4c(C)cccc4C)n3)OC[C@H]2CC(C)(C)C)n1)C1CCC1 [Compound 1587] | +++ (+++ is >60+) | EC50: < 1000 nM; Emax: > 60%
Cc1cccc(C)c1-c1cc2nc(n1)NS(=O)(=O)c1cccc(c1)C(=O)N(Cc1cccc([C@@H](C)N3CCCC3)n1)[C@H](CC(C)(C)C)CO2 [Compound 1588] | +++ (+++ is >60+) | 
Cc1cccc(C)c1-c1cc2nc(n1)NS(=O)(=O)c1cccc(c1)C(=O)N(Cc1cccc([C@@H](C)N3CCCC3)n1)[C@H](CC(C)(C)C)CO2 [Compound 1589] | ++ (++ is 30-60%) | 
Cc1cccc(C)c1-c1cc2nc(n1)NS(=O)(=O)c1cccc(c1)C(=O)N(Cc1cccc([C@@H](C)NC(=O)C(C)C)n1)[C@H](CC(C)(C)C)CO2 [Compound 1590] | +++ (+++ is >60+) | 
CC(=O)N[C@H](C)c1cccc(CN2C(=O)c3cccc(c3)S(=O)(=O)Nc3nc(cc(-c4c(C)cccc4C)n3)OC[C@H]2CC(C)(C)C)n1 [Compound 1592] | +++ (+++ is >60+) | 
